Laboratory results published in PMC10905675, “INX-315, a Selective CDK2 Inhibitor, Induces Cell Cycle Arrest and Senescence in Solid Tumors” (Cancer Discovery, 2023).
Read-outs that look alike come from different tables or passages of the source.

Key:
[1] = test system: five lines without CCNE1 amplification (ovarian cancer); test: CellTiter Glo viability assay; assay type: cell-based; conditions: 144 h, six days
[2] = Body weight of tumor-bearing mice; assay type: in vivo; conditions: mice treated with INX-315, CCNE1-amplified models
Experimental: PDX models were performed by Crown Biosciences (OV5398, GA0103, and GA0114) or XenoSTART (ST4316B). Tumor fragments from stock mice were harvested and implanted subcutaneously into the flank of NOD/SCID mice (OV5398, RRID:IMSR_JAX:001303), BALB/c nude mice (GA0103 and GA0114, RRID:IMSR_RJ:BALB-C-NUDE), or athymic nude mice (Crl:NU(NCr)-Foxn1nu, RRID:IMSR_CRL:490) (ST4316B). For CDX models, female athymic nude mice (Crl:NU(NCr)-Foxn1nu, RRID:IMSR_CRL:490) were inoculated with 1 × 10^7 50% Cultrex OVCAR3 cells in the flank. Experiments performed using MMTV-rtTA/tetO-HER2 mice were performed at the Peter MacCallum Cancer Centre. Tumor formation was induced and sustained in female mice with doxycycline as previously described ([33]). Randomization and treatment in all models began when median tumor volume reached a maximum of 300 mm^3.
Mice were treated via oral gavage. INX-315 was prepared weekly in 100% PEG400; abemaciclib was prepared as previously described ([33]) and ribociclib (Selleckchem, S7440) was prepared weekly in 0.5% methyl cellulose. To generate abemaciclib-resistant MMTV-rtTA/tetO-HER2 tumors, mice were treated continuously with abemaciclib at a dose of 75 mg/kg until tumors resumed growth as described in text. […]

CDK2/cyclin A1/E1/O = CDK2/cyclin A1/E1/O (Homo sapiens, UniProt P24941); test: SelectScreen follow-up dose-response; assay type: biochemical; conditions: dose-response 50 pmol/L to 1 µmol/L
From the text: (§1) INX-315 was first evaluated in the SelectScreen Biochemical Kinase Profiling at Thermo Fisher Scientific (Madison, WI). The primary screen consisted of INX-315 dosed at a single concentration of 100 nmol/L in 1% DMSO across each platform within the SelectScreen array of assays, LanthaScreen Eu Kinase Binding Assay; AdaptaScreen; and Z'LyteScreen using preestablished conditions at Thermo Fisher Scientific as shown in Supplementary Table S2. […] The follow-up screen consisted of 10-point dose–response curves for INX-315 from 1 µmol/L to 0.0495 nmol/L.

all other targets = test: SelectScreen follow-up dose-response; assay type: biochemical; conditions: dose-response 50 pmol/L to 1 µmol/L; kinases with ≥80% inhibition other than CDK2 complexes and CSF1R
From the text: as §1

CSF1R = CSF1R (Homo sapiens, UniProt P07333); test: SelectScreen follow-up dose-response; assay type: biochemical; conditions: dose-response 50 pmol/L to 1 µmol/L
From the text: as §1

ALK L1196M = target: T1, ALK L1196M (Homo sapiens, UniProt Q9UM73, L1196M); test: SelectScreen LanthaScreen Binding; conditions: INX-0315 at 100nM
T1 construct: purchased Thermo Fisher Scientific SelectScreen (plus Nanosyn / Reaction Biology for CDK/cyclin lines)
From the text: as §1

DDR2 = target: T2, DDR2 (Homo sapiens, UniProt Q16832); test: SelectScreen LanthaScreen Binding; conditions: INX-0315 at 100nM
T2 construct: purchased Thermo Fisher Scientific SelectScreen (plus Nanosyn / Reaction Biology for CDK/cyclin lines)
From the text: as §1

MYLK4 = target: T3, MYLK4 (Homo sapiens, UniProt Q86YV6); test: SelectScreen LanthaScreen Binding; conditions: INX-0315 at 100nM
T3 construct: purchased Thermo Fisher Scientific SelectScreen (plus Nanosyn / Reaction Biology for CDK/cyclin lines)
From the text: as §1

CDK11/cyclin C = target: T4, CDK11/cyclin C (Homo sapiens, UniProt Q9BWU1); test: SelectScreen LanthaScreen Binding; conditions: INX-0315 at 100nM
T4 construct: purchased Thermo Fisher Scientific SelectScreen (plus Nanosyn / Reaction Biology for CDK/cyclin lines)
From the text: as §1

ACVR1 (ALK2) = target: T5, ACVR1 (ALK2) (Homo sapiens, UniProt Q04771); test: SelectScreen LanthaScreen Binding; conditions: INX-0315 at 100nM
T5 construct: purchased Thermo Fisher Scientific SelectScreen (plus Nanosyn / Reaction Biology for CDK/cyclin lines)
From the text: as §1

CASK = target: T6, CASK (Homo sapiens, UniProt O14936); test: SelectScreen LanthaScreen Binding; conditions: INX-0315 at 100nM
T6 construct: purchased Thermo Fisher Scientific SelectScreen (plus Nanosyn / Reaction Biology for CDK/cyclin lines)
From the text: as §1

OVCAR3 cells = test: Cell cycle flow cytometry; assay type: cell-based; conditions: 24 hours, as little as 30–100 nmol/L
[3] = test system: palbociclib-resistant MCF7 cells; test: CellTiter Glo viability assay; assay type: cell-based; conditions: Homo sapiens
Experimental: (§2) An exception to this is MCF7PDRCl5-1 cells which were first cultured for 5 days without palbociclib then plated as described. MCF7PDRCl5-1 cells were treated with either a dose curve of the indicated CDK4/6i or a dose curve of INX-315 + 1 µmol/L of the indicated CDK4/6i. Cell viability was determined using the CellTiter-Glo assay (Promega, G9241) following manufacturer's instructions. Plates were processed on either BioTek Synergy2 multi-mode (Agilent) or ClarioSTAR (BMG Labtech) plate readers. T47D and MCF7 cells were seeded into […] plates using BioTek 406 (Aglient) and treated with a ten-point dose concentration from 10 µmol/L to 0.3 nmol/L of INX-315 for 2× doubling times. Plates were fixed with 4% PFA and stained with Rhodamine-Phalloidin (Bio-Trend, 00027) and DAPI (5 mg/mL, Invitrogen, catalog no. D1306). Plates were imaged using CellInsight CX7 LZR and DAPI-positive cells were counted using Thermo Fisher Scientific HCS Studio Cell Analysis Software.

[4] = test system: all CCNE1-amplified lines; test: CellTiter Glo viability assay; assay type: cell-based; conditions: 144 h
Experimental: as §2

MKN1 = test: CellTiter Glo viability assay; assay type: cell-based; conditions: Homo sapiens, MKN-1, 144 h; MKN1 gastric carcinoma, 6 days
Experimental: as §2

MKN1 cells = test: Cell cycle flow cytometry; assay type: cell-based; conditions: 24 hours, 100 nmol/L
[5] = test system: CDK3/cyclin E1, CDK5 (inactive), CDK5/p25, CDK5/p35, CSF1R, MAPK15/ERK7, NTRK/TRKC, TYK2; test: SelectScreen primary screen; assay type: biochemical; conditions: 100 nmol/L INX-315
From the text: as §1

CDK2/cyclin A/A1/E1/O = test: SelectScreen primary screen; assay type: biochemical; conditions: 100 nmol/L INX-315
From the text: as §1

pKa = assay type: physicochemical

T4 sequence (Q9BWU1 whole entry): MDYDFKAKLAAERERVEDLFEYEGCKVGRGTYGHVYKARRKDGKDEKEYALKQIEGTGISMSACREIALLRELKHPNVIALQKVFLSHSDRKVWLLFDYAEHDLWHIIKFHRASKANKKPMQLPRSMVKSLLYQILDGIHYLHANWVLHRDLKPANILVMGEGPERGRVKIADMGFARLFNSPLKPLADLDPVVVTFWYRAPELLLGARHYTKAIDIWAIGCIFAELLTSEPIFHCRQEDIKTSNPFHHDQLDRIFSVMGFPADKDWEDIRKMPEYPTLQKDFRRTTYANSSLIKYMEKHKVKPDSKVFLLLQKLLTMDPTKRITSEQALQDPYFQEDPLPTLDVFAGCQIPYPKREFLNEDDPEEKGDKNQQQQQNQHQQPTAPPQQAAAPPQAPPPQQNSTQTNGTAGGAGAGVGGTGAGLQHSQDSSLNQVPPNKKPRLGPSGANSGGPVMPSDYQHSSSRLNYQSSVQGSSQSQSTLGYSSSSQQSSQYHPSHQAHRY
T4 sequence (P24863 whole entry partner): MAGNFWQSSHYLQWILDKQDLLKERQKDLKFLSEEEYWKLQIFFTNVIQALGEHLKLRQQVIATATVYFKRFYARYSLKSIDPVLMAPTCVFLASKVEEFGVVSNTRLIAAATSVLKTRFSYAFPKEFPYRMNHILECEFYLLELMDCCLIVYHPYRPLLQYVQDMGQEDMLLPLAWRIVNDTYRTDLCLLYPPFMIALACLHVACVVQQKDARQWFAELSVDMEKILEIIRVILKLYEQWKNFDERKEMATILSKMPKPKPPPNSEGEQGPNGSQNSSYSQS
T2 sequence (Q16832 22-855): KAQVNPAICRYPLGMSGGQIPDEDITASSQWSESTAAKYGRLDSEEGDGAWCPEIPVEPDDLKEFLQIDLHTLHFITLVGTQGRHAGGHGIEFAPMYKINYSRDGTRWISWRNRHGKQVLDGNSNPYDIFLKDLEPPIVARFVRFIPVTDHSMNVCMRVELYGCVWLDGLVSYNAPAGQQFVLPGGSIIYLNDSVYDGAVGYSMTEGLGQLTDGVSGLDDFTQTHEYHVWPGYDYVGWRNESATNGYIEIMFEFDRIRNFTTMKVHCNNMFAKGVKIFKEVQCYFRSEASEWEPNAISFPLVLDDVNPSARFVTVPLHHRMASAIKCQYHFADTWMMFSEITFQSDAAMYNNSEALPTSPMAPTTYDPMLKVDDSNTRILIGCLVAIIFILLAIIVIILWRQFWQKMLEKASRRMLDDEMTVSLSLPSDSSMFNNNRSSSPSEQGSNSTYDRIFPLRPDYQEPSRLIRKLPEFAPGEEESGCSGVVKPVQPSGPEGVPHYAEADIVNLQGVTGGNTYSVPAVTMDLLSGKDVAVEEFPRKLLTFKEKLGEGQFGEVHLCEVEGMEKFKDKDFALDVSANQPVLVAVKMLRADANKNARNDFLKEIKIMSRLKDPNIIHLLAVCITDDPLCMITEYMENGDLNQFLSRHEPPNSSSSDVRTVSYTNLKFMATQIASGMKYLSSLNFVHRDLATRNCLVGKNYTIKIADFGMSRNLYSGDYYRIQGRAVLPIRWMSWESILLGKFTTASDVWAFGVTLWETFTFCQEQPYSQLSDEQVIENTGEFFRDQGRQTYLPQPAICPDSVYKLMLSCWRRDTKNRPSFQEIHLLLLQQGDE
Sequence of CSF1R (P07333 20-972): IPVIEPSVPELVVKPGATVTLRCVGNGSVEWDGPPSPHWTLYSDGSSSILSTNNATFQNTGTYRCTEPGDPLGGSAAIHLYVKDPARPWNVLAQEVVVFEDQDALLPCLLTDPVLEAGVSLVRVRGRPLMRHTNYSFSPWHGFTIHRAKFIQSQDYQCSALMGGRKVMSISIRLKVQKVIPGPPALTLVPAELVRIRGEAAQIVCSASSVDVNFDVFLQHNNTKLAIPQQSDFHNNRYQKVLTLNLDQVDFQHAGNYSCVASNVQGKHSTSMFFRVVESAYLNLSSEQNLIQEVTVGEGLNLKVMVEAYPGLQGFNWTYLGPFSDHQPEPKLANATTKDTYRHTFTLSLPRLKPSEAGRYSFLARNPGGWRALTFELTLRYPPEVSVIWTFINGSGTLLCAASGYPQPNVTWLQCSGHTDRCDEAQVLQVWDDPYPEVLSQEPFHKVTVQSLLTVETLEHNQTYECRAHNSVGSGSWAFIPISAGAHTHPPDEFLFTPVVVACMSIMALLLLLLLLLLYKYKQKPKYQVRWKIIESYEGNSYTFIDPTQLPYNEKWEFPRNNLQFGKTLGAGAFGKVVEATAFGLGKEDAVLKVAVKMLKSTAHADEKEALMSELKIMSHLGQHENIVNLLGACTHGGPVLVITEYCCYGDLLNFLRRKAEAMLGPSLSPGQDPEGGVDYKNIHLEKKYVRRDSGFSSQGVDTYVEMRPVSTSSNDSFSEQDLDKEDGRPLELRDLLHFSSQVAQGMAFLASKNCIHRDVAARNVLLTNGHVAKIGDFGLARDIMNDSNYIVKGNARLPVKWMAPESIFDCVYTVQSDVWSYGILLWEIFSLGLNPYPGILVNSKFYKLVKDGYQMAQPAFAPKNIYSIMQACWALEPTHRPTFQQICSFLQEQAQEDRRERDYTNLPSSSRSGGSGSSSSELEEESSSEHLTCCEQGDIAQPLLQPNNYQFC
T5 sequence (Q04771 21-509): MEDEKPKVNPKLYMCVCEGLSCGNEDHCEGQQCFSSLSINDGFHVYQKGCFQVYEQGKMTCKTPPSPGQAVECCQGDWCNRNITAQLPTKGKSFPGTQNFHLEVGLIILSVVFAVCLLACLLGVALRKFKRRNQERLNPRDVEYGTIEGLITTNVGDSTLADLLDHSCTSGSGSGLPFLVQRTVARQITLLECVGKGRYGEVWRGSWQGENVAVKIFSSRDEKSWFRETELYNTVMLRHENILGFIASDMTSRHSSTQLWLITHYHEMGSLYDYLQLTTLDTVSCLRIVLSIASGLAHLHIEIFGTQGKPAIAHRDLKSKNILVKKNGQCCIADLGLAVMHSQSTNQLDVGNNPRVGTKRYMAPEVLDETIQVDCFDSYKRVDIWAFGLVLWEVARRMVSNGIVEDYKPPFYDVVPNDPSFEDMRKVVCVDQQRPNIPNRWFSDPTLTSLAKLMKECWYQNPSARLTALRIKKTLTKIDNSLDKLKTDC
T3 sequence (Q86YV6 whole entry): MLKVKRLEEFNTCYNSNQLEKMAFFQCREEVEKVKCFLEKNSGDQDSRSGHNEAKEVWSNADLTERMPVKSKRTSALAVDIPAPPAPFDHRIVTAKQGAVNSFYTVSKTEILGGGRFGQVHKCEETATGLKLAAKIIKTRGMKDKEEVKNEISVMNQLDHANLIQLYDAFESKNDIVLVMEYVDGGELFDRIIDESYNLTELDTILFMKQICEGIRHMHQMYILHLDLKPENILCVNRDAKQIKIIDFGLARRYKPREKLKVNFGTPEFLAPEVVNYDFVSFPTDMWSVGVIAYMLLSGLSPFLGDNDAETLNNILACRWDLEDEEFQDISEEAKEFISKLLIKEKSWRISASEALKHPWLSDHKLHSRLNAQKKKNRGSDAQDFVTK
T6 sequence (O14936 whole entry): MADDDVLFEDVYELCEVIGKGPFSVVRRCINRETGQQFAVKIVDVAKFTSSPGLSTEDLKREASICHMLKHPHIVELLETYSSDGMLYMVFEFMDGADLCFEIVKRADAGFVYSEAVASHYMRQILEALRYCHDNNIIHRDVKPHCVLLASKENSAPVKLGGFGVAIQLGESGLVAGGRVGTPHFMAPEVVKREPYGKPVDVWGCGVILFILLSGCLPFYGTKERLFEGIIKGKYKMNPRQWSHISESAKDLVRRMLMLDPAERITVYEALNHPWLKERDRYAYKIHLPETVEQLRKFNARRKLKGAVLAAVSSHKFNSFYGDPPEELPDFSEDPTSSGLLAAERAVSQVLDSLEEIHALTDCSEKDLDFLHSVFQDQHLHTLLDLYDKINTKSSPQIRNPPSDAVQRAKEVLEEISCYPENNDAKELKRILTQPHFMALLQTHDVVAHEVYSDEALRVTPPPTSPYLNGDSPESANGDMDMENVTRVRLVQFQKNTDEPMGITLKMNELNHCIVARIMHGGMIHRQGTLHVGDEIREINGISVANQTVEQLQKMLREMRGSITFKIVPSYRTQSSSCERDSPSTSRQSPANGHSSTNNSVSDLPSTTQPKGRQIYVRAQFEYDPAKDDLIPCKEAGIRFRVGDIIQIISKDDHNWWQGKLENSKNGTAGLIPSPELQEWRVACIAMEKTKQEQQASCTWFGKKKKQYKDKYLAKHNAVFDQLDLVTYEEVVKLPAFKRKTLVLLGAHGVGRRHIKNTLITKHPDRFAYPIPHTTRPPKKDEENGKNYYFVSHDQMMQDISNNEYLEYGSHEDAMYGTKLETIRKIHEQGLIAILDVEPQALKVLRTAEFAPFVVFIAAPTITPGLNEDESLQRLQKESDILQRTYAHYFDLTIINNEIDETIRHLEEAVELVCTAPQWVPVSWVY

For `NS(=O)(=O)c1ccc(Nc2ncc3cc4n(c3n2)C2(CCCCC2)C(=O)NN4)cc1` [INX-315], the IC50 ([1]; read-out: IC50, range) was 0.159 to 3.56 µM, the IC50 ([1]; read-out: mean IC50) was 1.44 µM and the “loss of body weight during the studies” value [2] was no more than 5%. The IC50 (CDK2/cyclin A1/E1/O) was no more than 0.004 µM, the IC50 (all other targets) was greater than 0.01 µM and the IC50 (CSF1R) was 0.00229 µM. The inhibition at 0.1 µM (ALK L1196M) was 7%, the inhibition at 0.1 µM (DDR2) was 18% and the inhibition at 0.1 µM (MYLK4) was 20%. For the same compound, the inhibition at 0.1 µM (CDK11/cyclin C) was 1%, the inhibition at 0.1 µM (ACVR1 (ALK2)) was -5% and the inhibition at 0.1 µM (CASK) was -3%. For the same compound, the cell cycle effect (OVCAR3 cells) was “potent G1 arrest”, the IC50 ([3]; MCF7, Supp Fig S9D, DMSO + INX-315, read-out: INX-315 IC50) was 0.906 µM and the IC50 ([3]; MCF7, cultured out of CDK4/6i, read-out: IC50 to INX-315) was less than 0.9 µM. It also gave an IC50 ([3]; MCF7, with abemaciclib (1 µmol/L), read-out: IC50 to INX-315) of 0.028 µM, an IC50 ([3]; MCF7, with lerociclib (1 µmol/L), read-out: IC50 to INX-315) of 0.023 µM and an IC50 ([3]; MCF7, with palbociclib (1 µmol/L), read-out: IC50 to INX-315) of 0.014 µM. For the same compound, the IC50 [4] was 0.036 µM, the IC50 (MKN1) was 0.044 µM and the cell cycle effect (MKN1 cells) was “strong G1 arrest”. The “inhibition of CDK3/cyclin E1, CDK5 (inactive), CDK5/p25, CDK5/p35, CSF1R, MAPK15/ERK7, NTRK/TRKC, TYK2” value [5] was no less than 80%, the “inhibition of CDK2/cyclin A/A1/E1/O” value (CDK2/cyclin A/A1/E1/O) was no less than 94% and the pKa (pKa; read-out: pKa (acidic)) was 10.4. It also gave a pKa (pKa; read-out: pKa (basic)) of 5.08.
